Results taken from patent US10077293B2, “Antimicrobial peptide analogues derived from abalone (Haliotis discus) and antimicrobial pharmaceutical composition containing the same” (priority 2016, dated 2018).
Ends that are not written are not given here.

Key:
Experiment in all cases: Ultrasensitive radial diffusion assay (URDA), antimicrobial activity
B. subtilis KCTC1021 = type: cell-based, Bacillus subtilis; details: B. subtilis KCTC1021, Gram +
Protocol: (§1) Four species of Gram positive bacteria (Bacillus subtilis, Staphylococcus epidermidis, […] and Propionibacterium acnes), five species of Gram negative bacteria (E. coli D31, E. coli ML35p, Shigella flexneri, Pseudomonas aeruginosa and Vibrio parahaemolyticus) and one yeast species (Candida albicans) were used for experiments. The antimicrobial activity was measured by ultrasensitive radial diffusion assay (URDA) using two layers of media of different concentrations. First, the microorganisms were pre-cultured in each medium for 18 hours and the concentration of the microorganisms was adjusted to 84% T (≈1×10^8 CFU/mL) using a colorimeter (Product No. 52-1210, BioMerieux, Inc., USA). Then, 0.5 mL of the diluted microorganism solution was added to an underlay gel containing 9.5 mL of 0.03% TSB, 1% type I agarose and 10 mM phosphate buffer (PB; pH 6.5) and plated and solidified on a plate after mixing well. After boring a well with a diameter of 2.5 mm on the solidified plate using a punch, 5 μL of each analogue solution was introduced. All the analogues were dissolved in 5 μL of 0.01% acetic acid to avoid any effect of solvent. After the analogue permeated into the medium, the microorganisms were cultured for 3 hours and an overlay gel containing 10 mL of 6% TSB, 1% type I agarose and 10 mM phosphate buffer (pH 6.5) was poured and solidified. Then, the microorganisms were cultured again for 18 hours at the same temperature. Next day, the antimicrobial activity was determined by measuring the size (diameter) of a clear zone formed around the well. Piscidin 1, an antimicrobial peptide derived from the mast cells of a hybrid striped bass, was used as a control.

S. epidermidis KCTC1917 = type: cell-based, Staphylococcus epidermidis; details: S. epidermidis KCTC1917, Gram +
Protocol: as §1

S. mutans KCCM40105 = type: cell-based, Streptococcus mutans; details: S. mutans KCCM40105, Gram +
Protocol: as §1

E. coli D31 = type: cell-based; details: E. coli D31, Gram −
Protocol: as §1

E. coli ML35p = type: cell-based; details: Gram −
Protocol: as §1

[1] = system: Propionibacterium acnes KCTC11946; type: cell-based; details: Propionibacterium acnes KCTC11946, Gram +
Protocol: as §1

[2] = system: Shigella flexneri KCTC2009; type: cell-based; details: Shigella flexneri KCTC2009, Gram −
Protocol: as §1

[3] = system: Vibrio parahaemolyticus KCCM42264; type: cell-based
Protocol: as §1

P. aeruginosa KCTC2004 = type: cell-based, Pseudomonas aeruginosa; details: P. aeruginosa KCTC2004, Gram −
Protocol: as §1

C. albicans = type: cell-based, Candida albicans
Protocol: as §1

[4] = C. albicans KCCM42264 (as printed in Table 2), yeast

Substance	Minimal effective concentration (B. subtilis KCTC1021) [µg/mL]	Minimal effective concentration (S. epidermidis KCTC1917) [µg/mL]	Minimal effective concentration (S. mutans KCCM40105) [µg/mL]	Minimal effective concentration (E. coli D31) [µg/mL]	Minimal effective concentration (E. coli ML35p) [µg/mL]	Minimal effective concentration [1] [µg/mL]	Minimal effective concentration [2] [µg/mL]	Minimal effective concentration [3] [µg/mL]	Minimal effective concentration (P. aeruginosa KCTC2004) [µg/mL]	Minimal effective concentration (C. albicans; C. albicans KCTC7965, yeast) [µg/mL]	Minimal effective concentration (C. albicans; [4]) [µg/mL]
KLLLKLLKKLL-NH2 [SEQ ID NO 8, KLLLKLLKKLL]	10.3	9.6	7.4	14.2	9.8	12.3	10.7	7.1	12.5	11.8	–
KLALKLLKLL-NH2 [SEQ ID NO 5, KLALKLLKLL]	15.2	16.4	10.5	17.5	–	16.6	17.9	8.1	19.9	14.4	–
KLLKKLLKLL-NH2 [SEQ ID NO 9, KLLKKLLKLL]	15.7	14.0	9.0	18.9	17.2	18.5	15.4	9.5	17.8	14.0	–
KAAAKAAKAA-NH2 (C-terminus assumed) [SEQ ID NO 6, KAAAKAAKAA]	>50.0	>50.0	>50.0	>50.0	>50.0	>50.0	>50.0	>50.0	>50.0	>50.0	–
LLWKLLKLLLK-NH2 [SEQ ID NO 2, LLWKLLKLLLK]	16.0	18.4	16.3	16.2	12.1	18.0	11.6	14.0	14.2	–	17.0
LKWLLKLLKLK-NH2 [SEQ ID NO 11, LKWLLKLLKLK]	12.1	16.0	12.0	14.1	15.0	13.1	11.2	9.0	8.7	10.0	–
KLLLKLLKLL-NH2 [SEQ ID NO 7, KLLLKLLKLL]	11.2	8.8	7.8	13.2	8.8	11.9	10.4	6.8	11.2	12.1	–
AAWKLLKALAKA-NH2 [SEQ ID NO 1, AAWKLLKALAKA]	20.0	17.3	20.3	22.0	23.0	25.0	28.0	26.3	36.0	–	42.0
